Blank lines part the entries; values can stand above or below the compound they belong to.
Legend:
[1] = system: voltage-dependent sodium channels; test: Whole-cell voltage clamp of sodium current in small capsaicin-sensitive DRG neurons; assay type: cell-based, rat; settings: n=25
Experimental: We recorded current through voltage-dependent sodium channels using whole-cell voltage clamp recordings from adult rat DRG neurons. To select for nociceptors, we recorded from small (24±5 μm; n=25) neurons and tested the neurons for the expression of TRPV1 receptors by a short (1-sec) application of 1 μM capsaicin. In 25/25 of small neurons tested, capsaicin produced a prolonged (10±3 sec) inward current (FIG. 1A, upper panel), consistent with the neurons being nociceptors. Sodium currents were elicited by depolarizing steps from a holding potential of −70 mV.
(§1) Dorsal root ganglia from 6-8 week old Sprague-Dawley rats were removed and placed into […] containing 1% penicillin—streptomycin (Sigma), then treated for 90 minutes with 5 mg/ml collagenase, 1 mg/ml Dispase II (Roche, Indianapolis, Ind.) and for 7 minutes with 0.25% trypsin, followed by addition of 2.5% trypsin inhibitor. Cells were triturated in the presence of […] (50 U), centrifuged through 15% BSA (Sigma), resuspended in 1 ml Neurobasal medium (Sigma), 10 μM AraC, NGF (50 ng/ml) and GDNF (2 ng/ml) and plated onto poly-lysine (500 μg/ml) and laminin (5 mg/ml) coated 35 mm tissue culture dishes (Becton Dickinson) at 8000-9000 per well. Cultures were incubated at 37° C., 5% carbon dioxide. Recordings were made within 48 hours after plating. […]

[2] = system: voltage-dependent sodium channels; test: Whole-cell voltage clamp of sodium current in large capsaicin-insensitive DRG neurons; assay type: cell-based, rat; settings: 10-minute application, n=10
From the text: To test whether the ability of co-applied capsaicin and QX-314 to inhibit sodium current is selective for cells that express TRPV1 receptors, we also recorded from large DRG neurons (soma diameter >40 μm) (FIG. 1A, right). […] As for small diameter neurons, QX-314 applied alone had little or no effect on sodium current (current increased by 8±4% after a 10-minute application, n=10). Unlike small diameter neurons, capsaicin had no effect on sodium current in large diameter neurons (average increase by 3±2% after a 10-minute application, n=10).
as §1

[3] = system: small diameter DRG neurons; test: Current clamp, action potential generation in small DRG neurons; assay type: cell-based, rat; settings: QX-314 5 mM, capsaicin 1 μM, alone or co-applied
[4] = Intraplantar injection, thermal (radiant heat) response latency; assay type: in vivo, rat; settings: QX-314 at 30 min, capsaicin at 15 and 30 min, together at 2 hours, heat applied for 25 seconds
Experimental: Similar effects were seen examining sensitivity to a standardized noxious radiant heat stimulus. […] This effect remained for 4 hours after the injection (FIG. 3B).

[5] = Sciatic nerve injection, mechanical threshold (von Frey filaments); assay type: in vivo, rat; settings: QX-314 0.2%, 100 μL, capsaicin 0.5 μg/μL, 100 μL (for 30 min), or QX-314 then capsaicin, stiffest hair 57 g
Experimental: (§2) Motor effects were scored according to a scale of 0 (no effect; normal gait and limb placement), 1 (limb movement but with abnormal limb placement and movement) or 2 (complete loss of limb movement). […] For co-application of QX-314 and capsaicin into the para-sciatic nerve region, we injected QX-314 first, followed 10 minutes later by capsaicin, with the idea that QX-314 would be present extracellularly and ready to enter TRPV1 channels as soon as they were activated.
(§3) For sciatic nerve injections, animals were first habituated to handling for 10 days. Lidocaine (0.2% or 2%, 100 μL); QX-314 (0.2%, 100 μL) alone; capsaicin (50 μg in 100 μL) alone, or QX-314 followed by capsaicin (10 minutes interval) were injected into the area of sciatic nerve below the hip joint. Mechanical and thermal thresholds were determined using von Frey filaments and radiant heat. […] Walking, climbing, walking on the rod and placing reflex were examined. […] All experiments were done with the experimenter blinded.

[6] = Sciatic nerve injection, thermal (radiant heat) response latency; assay type: in vivo, rat; settings: QX-314 0.2%, 100 μL, capsaicin 0.5 μg/μL, 100 μL (for 30 min)
Experimental: as §2, §3

[7] = Sciatic nerve injection, motor function score and placing reflex
Experimental: as §2, §3

sodium channel = test: Voltage clamp of sodium channel current in small dorsal root ganglion neurons with eugenol (Example 2); assay type: cell-based
Experimental: Co-application of eugenol and QX-314 produces progressive block that can be complete after 7 minutes. Two examples are depicted, which are representative of 10 experiments with similar results.
We have also shown that eugenol (C10H12O2), an allyl chain-substituted guaiacol, 2-methoxy-4-(2-propenyl)phenol (active ingredient in oil of clove, and a non-pungent agonist of TRPV1 receptors) promotes entry of QX-314 into dorsal root ganglion neurons by activating TRPV1 channels. FIG. 5 depicts voltage clamp recordings of sodium channel current in small dorsal root ganglion neurons. […] Co-application of eugenol and QX-314 produces progressive block that can be complete after 7 minutes. Two examples are depicted, which are representative of 10 experiments with similar results. […] Thus, these experiments indicate that eugenol promotes entry of QX-314 into dorsal root ganglion neurons by activating TRPV1 channels.

[8] = Intraplantar injection, mechanical threshold for paw withdrawal (von Frey hairs); settings: QX-314 10 μL of 2%, capsaicin 10 μg/10 μL (15 and 30 minutes), or together (15 minutes)
sodium current = test: Sodium current with TRPA agonist mustard oil and QX-314 (Example 3); assay type: cell-based; settings: MO alone, 50 μM
Experimental: MO alone reduces sodium current by 20-30% and reaches a plateau after approximately 3 minutes.

TRPV1 receptors [9] = target: T1, TRPV1 receptors (Rattus norvegicus, UniProt O35433); test: Capsaicin-evoked inward current in small DRG neurons (test for TRPV1 expression); assay type: cell-based; settings: 1-sec application of 1 μM capsaicin
T1 construct: Dorsal root ganglia from 6-8 week old Sprague-Dawley rats were removed; endogenous in cells; host or cells: primary cultured DRG neurons from 6-8 week old Sprague-Dawley rats

TRPV1 receptors [10] = test: Capsaicin-evoked inward current in large DRG neurons; assay type: cell-based, rat; settings: soma diameter >40 μm; 10 of 10
[11] = Intraplantar injection, spontaneous flinching; settings: first 5 min after intraplantar injection

T1 sequence (O35433 whole entry): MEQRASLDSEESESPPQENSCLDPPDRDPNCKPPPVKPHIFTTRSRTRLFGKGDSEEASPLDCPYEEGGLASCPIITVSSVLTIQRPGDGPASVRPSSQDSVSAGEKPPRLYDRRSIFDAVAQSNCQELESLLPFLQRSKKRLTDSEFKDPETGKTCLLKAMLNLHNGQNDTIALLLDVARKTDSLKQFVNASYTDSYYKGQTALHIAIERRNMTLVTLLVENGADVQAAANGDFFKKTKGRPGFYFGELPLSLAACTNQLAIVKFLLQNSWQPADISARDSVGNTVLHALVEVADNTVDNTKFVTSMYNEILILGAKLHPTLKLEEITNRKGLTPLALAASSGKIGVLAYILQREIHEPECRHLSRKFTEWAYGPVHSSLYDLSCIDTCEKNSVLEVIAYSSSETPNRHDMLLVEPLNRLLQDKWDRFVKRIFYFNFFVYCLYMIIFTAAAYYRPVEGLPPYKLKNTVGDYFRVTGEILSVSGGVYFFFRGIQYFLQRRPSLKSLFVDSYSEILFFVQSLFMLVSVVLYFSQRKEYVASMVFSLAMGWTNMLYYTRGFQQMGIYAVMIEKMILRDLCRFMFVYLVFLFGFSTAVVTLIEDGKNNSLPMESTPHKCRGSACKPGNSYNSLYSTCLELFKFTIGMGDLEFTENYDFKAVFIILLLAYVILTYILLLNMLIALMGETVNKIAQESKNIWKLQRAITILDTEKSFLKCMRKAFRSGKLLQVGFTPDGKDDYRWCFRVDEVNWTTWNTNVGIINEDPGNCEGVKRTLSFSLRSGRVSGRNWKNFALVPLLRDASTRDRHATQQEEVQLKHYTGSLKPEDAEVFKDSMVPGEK

SMILES: CC[N+](CC)(CC)CC(=O)Nc1c(C)cccc1C [QX-314]
decrease of sodium current ([1]; bath application of 5 mM QX-314 alone, 5-minute application): 3±0.5% | increase of sodium current ([2]; QX-314 alone): 8±4% | effect on action potential [3]: no effect | effect on thermal response latency / reaction to noxious radiant heat [4]: transiently reduced the thermal response latency | effect on mechanical threshold [5]: no significant effect | effect on thermal response latency [6]: no significant effect | effect on motor function ([7]; rat, in vivo): no effect on motor function | effect of external QX-314 alone on sodium channels (sodium channel; external application): no effect | effect on mechanical threshold for withdrawal response [8]: no significant effect

SMILES: C=CCN=C=S [MO]
reduction of sodium current (sodium current): 20-30% | time to plateau of sodium current reduction (sodium current): approximately 3 minutes

duration of complete loss of placing reflex ([7]; rat, in vivo): at least 30 minutes | effect on motor function ([7]; rat, in vivo): complete paralysis of the lower limb | time of full recovery of sensory and motor deficits ([7]; rat, in vivo): ≤ 45 min | mean motor score ([7]; rat, in vivo, 30 min): 1.67±0.2
SMILES: CCN(CC)CC(=O)Nc1c(C)cccc1C [lidocaine]
effect on placing reflex ([7]; rat, in vivo): complete loss of the tactile stimulus-evoked placing reflex

SMILES: C=CCc1ccc(O)c(OC)c1 [eugenol, 2-methoxy-4-(2-propenyl)phenol]
inhibition of sodium current (sodium channel; eugenol alone): 10-20%

SMILES: COc1cc(CNC(=O)CCCC/C=C/C(C)C)ccc1O [capsaicin]
inhibition of sodium current ([1]; capsaicin alone, 1 μM for 1-10 minutes): 31±9% | average increase of sodium current ([2]; capsaicin alone): 3±2% | small neurons in which capsaicin produced inward current (TRPV1 receptors [9]): 25/25 | duration of prolonged inward current (TRPV1 receptors [9]; small neurons): 10 ± 3 s | inward current elicited in large DRG neurons (TRPV1 receptors [10]): did not elicit an inward current | effect on action potential [3]: reduced the action potential amplitude | effect on thermal response latency / reaction to noxious radiant heat [4]: reduced as expected the thermal response latency | effect on mechanical threshold [5]: reduced | effect on thermal response latency [6]: reduced | mean motor score ([7]; capsaicin alone 0.5 μg/μL, 100 μL, within 30 min after injection, scale 0-2): 0.7±0.2 | animals with sustained flexion of the injected limb ([7]; sciatic injection): 4 out of the 6 | effect on placing reflex ([7]; sciatic injection): unchanged | number of flinches [11]: 40±6 | effect on mechanical threshold for withdrawal response [8]: significantly reduced the mechanical threshold

Reference: US10179116B2, “Methods, compositions, and kits for treating pain and pruritis” (President and Fellows of Harvard College, priority 2006, dated 2019)
